US10059674B2, “Design, synthesis, and biological evaluation of 1-methyl-1, 4-dihyrdoindeno[1,2-C]pyrazole analogues as potential anticaner agents targeting tubulin colchicine binding site” (ACT PHARMA CO., LTD., priority 2016, dated 2018)
Like-named read-outs stand apart in the source and are kept apart here.

What was measured:
in vitro = conditions: mouse, liver microsomes, pH 7.47
MDCK cells = test: MDCK cell permeability test; conditions: for Efllux ratio: Papp(B→A)/Papp(A→B)
[1] = MDCK cell permeability test; conditions: dog, MDCK, 90 min
P-gp = test: MDCK cell permeability test; conditions: dog, MDCK
[2] = Liver microsomal metabolism stability test; conditions: for Remainder: mouse liver microsomes
[3] = rat, microsomes, 1 µM, pH 7.47
[4] = monkey, microsomes, 1 µM, pH 7.47
[5] = dog, microsomes, 1 µM, pH 7.47

CCOc1cccc(Nc2nn(C)c3c2Cc2cc(OCC)c(OCC(N)=O)cc2-3)c1 [LL-01]
half-life at 1 µM (in vitro): 55.3 min | microsomal CLint at 1 µM (in vitro): 25 µL/min/mg | PGP substrate judgment (MDCK cells; MDCK cells): is not the PGP substrate and No | Permeability Judgment (MDCK cells; MDCK cells): moderate permeability | Efllux ratio (MDCK cells; 2nd line of the compound (condition not given)): 1.2 | Efllux ratio (MDCK cells; 3rd line of the compound (condition not given)): 1.1 | Papp A→B at 90 min ([1]; Apparent permeability coefficient A→B, 1st line of the compound (condition not given)): 0.6 ×10⁻⁶ cm/s | Papp A→B at 90 min ([1]; Apparent permeability coefficient A→B, 2nd line of the compound (condition not given)): 16 ×10⁻⁶ cm/s | Papp A→B at 90 min, 10 µM ([1]; Apparent permeability coefficient A→B, 3rd line of the compound (condition not given)): 18 ×10⁻⁶ cm/s | Papp B→A at 90 min ([1]; Apparent permeability coefficient B→A, 1st line of the compound (condition not given)): 0.8 ×10⁻⁶ cm/s | Papp B→A at 90 min ([1]; Apparent permeability coefficient B→A, 2nd line of the compound (condition not given)): 18.9 ×10⁻⁶ cm/s | Papp B→A at 90 min, 10 µM ([1]; Apparent permeability coefficient B→A, 3rd line of the compound (condition not given)): 19.6 ×10⁻⁶ cm/s | recovery at 90 min ([1]; Recovery rate A→B, 2nd line of the compound (condition not given)): 69.4% | recovery at 90 min, 10 µM ([1]; Recovery rate A→B, 3rd line of the compound (condition not given)): 62.3% | recovery at 90 min ([1]; Recovery rate A→B, 1st line of the compound (condition not given; method: without / with 10 μM cyclosporine A)): 93.8% | recovery at 90 min ([1]; Recovery rate B→A, 1st line of the compound (condition not given)): 102% | recovery at 90 min ([1]; Recovery rate B→A, 2nd line of the compound (condition not given)): 85.4% | recovery at 90 min, 10 µM ([1]; Recovery rate B→A, 3rd line of the compound (condition not given)): 84.6% | efflux ratio at 90 min (P-gp): 1.2 | metabolism in the liver microsomes (in words) ([2]; mouse): moderate | Remainder ([2]; incubation time 0 min): 100.00% | Remainder ([2]; incubation time 10 min): 87.76% | Remainder ([2]; incubation time 30 min): 63.76% | Remainder ([2]; incubation time 90 min): 32.23% | Remainder ([3]; 0 h): 100.00% | Remainder ([3]; 10 min): 87.70% | Remainder ([3]; 0.5 h): 68.13% | Remainder ([3]; 1.5 h): 33.19% | Remainder ([4]; 0 h): 100.00% | Remainder ([4]; 10 min): 52.00% | Remainder ([4]; 0.5 h): 20.40% | Remainder ([4]; 1.5 h): 4.76% | Remainder ([5]; 0 h): 100.00% | Remainder ([5]; 10 min): 74.20% | Remainder ([5]; 0.5 h): 38.61% | Remainder ([5]; 1.5 h): 7.93%
